Measurements reported in US20240374763A1, “DIAGNOSIS AND MONITORING USING EXTRADOMAIN-B FIBRONECTIN TARGETED PROBES” (Case Western Reserve University, priority 2020, published 2024).
Counter-ions that a name gives are not always drawn. No end group written: not given here.

Key:
EDB-FN [1] = assay: MK2206-HCl treatment, qRT-PCR of EDB-FN; assay type: cell-based; conditions: MDA-MB-468-DR cells, 4 μM MK2206-HCl for 2 days, vs DMSO-treated controls
Description: (§1) The invasive TGF-β-treated and drug-resistant MCF7 and MDA-MB-468 populations were treated with MK2206-HCl, a pan-AKT inhibitor, purchased from SelleckChem (Boston, MA). For this treatment, 8×10^5 cells were plated on 6-well plates. After 24 h of attachment, the cells were treated with MK2206-HCl for 2 days (2 μM dose for MCF7 cells and 4 μM dose for MDA-MB-468 cells). Cells treated with equivalent volume of DMSO were used as controls. After treatment, the cells were counted and an equal number of cells was plated on Matrigel and in transwell inserts for the invasion and 3D growth assays, as described in the relevant sections. The treated and non-treated cells were similarly counted and harvested for protein and RNA extraction for western blotting and qRT-PCR, respectively.
Total RNA was extracted from cells and tissues using the RNeasy Plus Mini Kit (Qiagen, Germantown, MD), according to manufacturer's instructions. RNA concentration was determined and 1 μg of RNA was used to set up reverse transcription using the miScript II RT Kit (Qiagen) and qPCR was performed using the SyBr Green PCR Master Mix (Applied Biosystems, CA). Gene expression was analyzed by the 2-ΔΔCt method with 18S or R-actin expression as the control.

DLD1-DR tumors = assay: MK2206-HCl therapy of DLD1-DR tumor-bearing mice, tumor volume; assay type: in vivo; conditions: for average tumor volume: treated group
Description: For therapeutic monitoring, 3-4×10^6 DLD1-DR cells suspended in Matrigel-PBS mixture (1:1) were subcutaneously injected in the left flanks of 10 nude mice (100 μL per mouse, mice labeled TM1-TM10). Tumor volumes were monitored and measured once a week using a Vernier caliper. When the average tumor volumes reached 100 mm^3, mice were randomized into 2 groups of 5: vehicle (mice #TM1, TM3, TM4, TM5, & TM10) and treated (mice #TM2, TM6, TM7, TM8, & TM9). Once a week, mice in the treated group received MK2206-HCl (100 mg/kg) and those in the vehicle group were injected with equivalent volume of DMSO, as described previously. Smith, J. A., L. J. Stallons, and R. G. Schnellmann, Am J Physiol Renal Physiol, 2014. 307(4): p. F435-44. After 3 weeks of treatment, tumor volumes increased over 1000 mm^3 and the experiment was terminated. The animals were then euthanized, and the tumors were harvested for post-mortem histology and IHC. Tumor volumes were calculated as [(Width)2×Length]/2.

[2] = system: TGF-β-treated and drug-resistant MCF7 and MDA-MB-468 cells; assay: MK2206-HCl treatment, transwell invasion assay; assay type: cell-based; conditions: TGFβ-treated and drug-resistant cell derivatives; 2 μM (MCF7) or 4 μM (MDA-MB-468) for 2 days
Description: as §1
For the invasion assay, breast cancer cells were starved in serum-depleted media overnight. The next day, 1-2×10^5 cells were plated in transwell inserts (VWR, Radnor, PA) coated with 0.3 mg/mL Corning™ Matrigel™ Membrane Matrix (Corning, NY). After 1-2 days, the inserts were swabbed with Q-tips to remove the plated cells. The invading cells on the bottom of the inserts were fixed with 4% paraformaldehyde followed by staining with 0.1% crystal violet for 20 min. Excess stain was washed under tap water and images of the purple migrated cells were taken using the Moticam T2 camera with 10× objective lens.

[3] = system: phospho-AKT (T308 and S473); assay: MK2206-HCl treatment, western blot of phospho-AKT; assay type: cell-based; conditions: invasive cell derivatives; 2 μM (MCF7) or 4 μM (MDA-MB-468) for 2 days
Description: as §1, with “respectively. Total cellular protein was extracted as previously described. […] et al., (2019) Bioconjug Chem 30, 907-919. Protein concentration was determined by Lowry assay and equal concentration of protein extracts (40 μg) was loaded on SDS-PAGE gels, transferred onto nitrocellulose membrane and immunoblotted with primary antibodies overnight. Anti-EDB-FN antibody (G4 clone) was used at 1:1000 dilution. […]” for “respectively.”

EDB-FN [4] = target: T1, EDB-FN (Homo sapiens, UniProt P02751); assay: ZD2-Cy5.5 staining of human tissue; parameters: from tissue; host or cells: deparaffinized sections of human pancreatic cancer, PanIN and normal pancreas; conditions: 500 nM
T1 sequence (P02751 32-2267 isoform P02751-13 limits assumed): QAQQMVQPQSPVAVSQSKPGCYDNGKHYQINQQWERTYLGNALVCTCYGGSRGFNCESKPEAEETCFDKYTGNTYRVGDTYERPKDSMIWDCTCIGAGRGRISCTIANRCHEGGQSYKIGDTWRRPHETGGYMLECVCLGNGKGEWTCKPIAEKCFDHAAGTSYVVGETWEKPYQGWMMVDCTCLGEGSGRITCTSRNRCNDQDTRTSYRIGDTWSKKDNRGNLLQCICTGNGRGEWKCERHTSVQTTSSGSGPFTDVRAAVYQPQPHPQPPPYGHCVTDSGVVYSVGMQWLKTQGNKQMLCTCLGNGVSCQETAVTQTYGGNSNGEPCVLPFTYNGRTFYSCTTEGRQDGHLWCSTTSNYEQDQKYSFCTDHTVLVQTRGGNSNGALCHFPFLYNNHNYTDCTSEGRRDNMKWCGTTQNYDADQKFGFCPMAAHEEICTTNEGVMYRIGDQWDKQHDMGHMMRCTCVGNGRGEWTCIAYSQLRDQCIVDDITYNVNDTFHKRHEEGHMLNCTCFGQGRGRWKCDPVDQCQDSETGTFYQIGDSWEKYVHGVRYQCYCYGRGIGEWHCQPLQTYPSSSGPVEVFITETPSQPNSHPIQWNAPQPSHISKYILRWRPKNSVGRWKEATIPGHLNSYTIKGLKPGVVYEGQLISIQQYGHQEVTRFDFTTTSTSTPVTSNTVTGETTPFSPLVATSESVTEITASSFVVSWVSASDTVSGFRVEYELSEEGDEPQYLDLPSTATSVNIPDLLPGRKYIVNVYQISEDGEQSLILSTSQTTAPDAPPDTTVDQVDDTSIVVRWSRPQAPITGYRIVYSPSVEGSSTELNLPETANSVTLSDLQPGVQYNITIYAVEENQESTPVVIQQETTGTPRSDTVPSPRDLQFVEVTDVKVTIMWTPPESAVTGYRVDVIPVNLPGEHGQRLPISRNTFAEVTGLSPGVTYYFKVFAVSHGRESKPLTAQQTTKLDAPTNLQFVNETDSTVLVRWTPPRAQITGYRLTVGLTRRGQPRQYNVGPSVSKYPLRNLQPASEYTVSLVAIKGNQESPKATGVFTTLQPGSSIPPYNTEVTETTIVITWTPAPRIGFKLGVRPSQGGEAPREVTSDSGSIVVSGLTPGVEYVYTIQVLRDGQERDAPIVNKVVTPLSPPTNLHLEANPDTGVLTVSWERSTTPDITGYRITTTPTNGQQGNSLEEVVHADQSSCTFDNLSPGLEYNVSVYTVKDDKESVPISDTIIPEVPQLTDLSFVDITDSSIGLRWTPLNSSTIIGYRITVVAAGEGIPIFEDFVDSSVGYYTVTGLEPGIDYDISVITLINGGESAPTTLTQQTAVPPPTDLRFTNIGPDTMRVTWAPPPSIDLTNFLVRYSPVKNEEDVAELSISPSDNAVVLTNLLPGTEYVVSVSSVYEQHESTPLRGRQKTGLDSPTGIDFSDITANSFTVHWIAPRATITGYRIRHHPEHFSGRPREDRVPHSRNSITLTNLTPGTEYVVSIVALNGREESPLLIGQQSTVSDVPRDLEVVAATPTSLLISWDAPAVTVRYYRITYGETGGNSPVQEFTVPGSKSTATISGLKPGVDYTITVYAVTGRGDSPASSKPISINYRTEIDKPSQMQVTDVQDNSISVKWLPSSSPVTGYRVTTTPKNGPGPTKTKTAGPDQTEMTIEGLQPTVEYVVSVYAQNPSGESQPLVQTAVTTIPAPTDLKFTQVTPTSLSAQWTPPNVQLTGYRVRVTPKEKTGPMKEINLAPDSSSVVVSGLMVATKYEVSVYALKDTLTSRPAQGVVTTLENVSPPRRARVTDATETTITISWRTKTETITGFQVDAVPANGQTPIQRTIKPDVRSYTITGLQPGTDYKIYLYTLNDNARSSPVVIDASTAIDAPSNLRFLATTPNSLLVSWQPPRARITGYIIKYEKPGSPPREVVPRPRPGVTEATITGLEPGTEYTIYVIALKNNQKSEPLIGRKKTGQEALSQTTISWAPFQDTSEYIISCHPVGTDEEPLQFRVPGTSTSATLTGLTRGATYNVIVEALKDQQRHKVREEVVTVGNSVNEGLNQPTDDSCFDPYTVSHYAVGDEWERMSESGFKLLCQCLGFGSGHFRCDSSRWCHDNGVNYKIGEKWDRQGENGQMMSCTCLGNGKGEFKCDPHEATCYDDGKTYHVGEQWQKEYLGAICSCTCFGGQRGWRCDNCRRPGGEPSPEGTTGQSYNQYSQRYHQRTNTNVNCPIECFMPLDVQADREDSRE
Description: Tissue sections from PaCa patients (Case Comprehensive Cancer Center, Cleveland, OH) were deparaffinized with xylene, ethanol, and washed with water. Blocking was performed with 10% goat serum (Invitrogen, Carlsbad, CA) in PBS with 0.1% Tween 20 (PBS-T) for 30 minutes and incubated with 500 nM ZD2-Cy5.5 in PBS-T for 1 hour at 37° C. Following three washes with PBS-T, the sections were mounted using Fluoroshield mounting medium (Abcam, Cambridge, UK). Images were acquired on a FV1000 (Olympus, Waltham, MA) confocal microscope using pre-programmed emission and excitation filters for Cy5.5 (excitation: 635 nm; emission: 693 nm) and DAPI (excitation: 405 nm; emission: 461 nm), using a 10× objective lens. All tissue samples were imaged at the same laser power and sensor gain. Images were generated from single-channel grayscale images using FIJI software.

EDB-FN [5] = target: T1, EDB-FN; assay: Peptide binding study of OSCC spheroids with ZD2-Cy5.5; assay type: cell-based; conditions: ZD2-Cy5.5 125 nM, 15 minutes, ratio to Hoechst
Description: Coverslip plates (4-well, Ibidi GmbH, Martinsried, Germany) were coated with Cultrex Basement Membrane Matrix (350 μL, Trevigen, Gaithersburg, MA, USA). For spheroid formation, 2×10^5 OSCC cells were seeded into prepared wells, incubated for 2 days, and photographed with the Moticam T2 camera (Motic, Hong Kong, China). For peptide binding, 1×10^5 cells were seeded into prepared wells and incubated for 2 days. Spheroids were stained with ZD2-Cy5.5 (125 nM), synthesized as previously described, and Hoechst (1:2000 dilution) (Invitrogen, Carlsbad, CA, USA) dyes for 15 minutes, washed 3× with DPBS (Thermo Fisher Scientific), and imaged with confocal laser scanning microscopy using the Olympus FV1000 system (Olympus Life Science, Tokyo, Japan).
Confocal fluorescence images were analyzed using FIJI. For quantification, images were thresholded to generate ROIs of both stains. For spheroid size, the average size of Hoechst ROIs was calculated. For staining intensity, the average signal intensities of ZD2-Cy5.5 and Hoechst ROIs were calculated, along with the ratio between the average intensities.

EDB-FN [6] = assay: ZD2-Cy5.5 staining of frozen tissue sections, BC-1 blocking experiment; conditions: PaCa xenograft tissue sections, excess BC1 antibody
Description: For assessment of binding specificity of ZD2 peptide, flash frozen samples of tumor and normal tissues were collected from the euthanized tumor bearing mice and embedded in optimal cutting temperature media. The embedded samples were then immersed in liquid nitrogen for 5 minutes and transferred to −80° C. for storage before cryosectioning. Tissue sections were blocked for 1 hr in PBS containing 0.05% Tween-20 and 10% normal goat serum (Gibco, Gaithersburg, MD) and then stained with BC-1 primary monoclonal antibody (1:400) or ZD2-Cy5.5 (500 nM) at 4° C. overnight or room temperature incubation for 2.5 hr, respectively, and then washed with PBS-T buffer. Secondary Alexa Fluor 594 anti-rabbit was incubated with the BC-1 treated sections for 1 hour at room temperature (1:1000). For the blocking experiment, the tissue sections were first incubated with an excess of BC1 antibody at 4° C. overnight, then washed three times with PBS-T. The sections were then incubated with ZD2-Cy5.5 at room temperature incubation for 2.5 hr. The stained sections were washed with PBS-T buffer and images were acquired on an Olympus FV1000 (Waltham, MA) confocal microscope using pre-programmed emission and excitation filters for Cy5.5 (excitation: 635 nm; emission: 693 nm) and DAPI (excitation: 405 nm; emission: 461 nm), using a 10× objective lens.

ZD2-Cy5.5 binding (EDB-FN [4]; human PaCa tissue) | ZD2-Cy5.5 binding (EDB-FN [4]; normal pancreatic tissue) | ZD2-Cy5.5 binding (EDB-FN [4]; precancerous PanIN tissue) | staining intensity of SCC4 relative to HSC3 spheroids (EDB-FN [5]) | ZD2-Cy5.5 binding in the presence of the anti-EDB-FN antibody (EDB-FN [6]) | Compound | decrease in EDB-FN mRNA (EDB-FN [1]) | tumor response to therapy (DLD1-DR tumors; DLD1-DR tumors, MK2206-HCl 100 mg/kg once a week for 3 weeks) | average tumor volume (DLD1-DR tumors; week 1 (baseline), MK2206-HCl 100 mg/kg once a week) [mm^3] | average tumor volume (DLD1-DR tumors; week 4, after 3 weeks of MK2206-HCl 100 mg/kg once a week) [mm^3] | invasive potential [2] | inhibition of phospho-AKT (T308 and S473) [3]
 |  |  |  |  | NC1(c2ccc(-c3nc4ccn5c(=O)[nH]nc5c4cc3-c3ccccc3)cc2)CCC1 [MK2206-HCl] | 10-15% | did not respond to therapy | 110.5±11.97 | 1249.7±199.3 | reduced the invasive potential | robust inhibition
high | low | moderate | approximately 2 fold | blocked | ZD2-Cy5.5: EDB-FN-specific fluorescent peptide probe, ZD2 peptide labeled with Cy5.5 (TVRTSAD; also: labeled with Cy5.5, site and linker not given here) |  |  |  |  |  | 
